Test results as given in patent US6642271B2, “Potentiating compounds” (Ardenia Investments, Ltd., priority 2001, dated 2003).

How the values were obtained:
[1] = Solubility of compounds and formulations; format: physicochemical
Procedure: The obtained solution can be stored for at least three months at low temperatures, without noticeable change in the properties of compound (I-VI). Moreover, the formulation retains its cytotoxic effects during prolonged storage. Before use, the solution is evaporated in vacuo to yield a waxy solid which is dissolved in saline or other commonly used vehicle for intravenous infusion to a patient. […] An ethanol solution is prepared of one of N-(all-trans-Retinoyl)-L-cysteic acid (I), N-(13-cis-Retinoyl)-L-cysteic acid (11), N-(all-trans-Retinoyl)-L-homocysteic acid (III), N-(13-cis-Retinoyl)-L-homocysteic acid (IV), N-(all-trans-Retinoyl)-L-cysteinesulfinic acid (V), or N-(13-cis-Retinoyl)-L-cysteinesulfinic acid (VI). The obtained solution is evaporated in vacuo to give waxy solid, whereupon Taxol® is added, dissolving the waxy solid. […]

[2] = system: human breast adenocarcinoma MDA-MB-231 cell line; assay: Cytotoxicity: cell growth inhibition in cultures, viable cells counted by trypan blue exclusion; format: cell-based; conditions: for inhibition at 0.04 µM / inhibition at 1 µM / inhibition at 0.1 µM / inhibition at 0.01 µM / inhibition at 0.001 µM / inhibition at 0.0001 µM / inhibition at 10 pM: Homo sapiens
Procedure: The cell line was propagated by cultivation in Nunclon 25 cm^2 flasks (Nunc A/S, Denmark) in Minimum Essential Medium Eagle (MEM), containing antibiotics and supplemented with 10% (v/v) fetal bovine serum (FBS) (Sigma, St. Louis, Mo., USA). The cultures were maintained in growth medium at 37° C. in a humidified atmosphere, 95% air and 5% CO2.
A suspension of tumour cells (60×10^3 cells/mL) was prepared in MEM with 5% FBS and antibiotics. Cell suspension (200 μL) was seeded in wells of Nunclon 96-microwell plates (Nunc A/S, Denmark) at a density of 12×10^3 cell/well. The solutions of the drugs to be tested were added to the cultures on day 0 or day 1 in volumes of 2 μL. In all cases the cells were incubated for 3 days.
At the end of the incubation period, adherent cells were detached by trypsinization and the number of viable cells was counted using trypan blue dye exclusion test and a hemocytometer.
All experiments were performed at least twice and the cells counts were done in triplicate for each drug concentration. Each control and test series consisted of 6-8 cultures. The results are expressed as mean cell number ±SD and the differences between control and test series were evaluated by means of Student's t-test. The cytotoxicity of each tested drug was evaluated by the extent of cell growth inhibition. The Cell growth inhibition was evaluated as follows:
Cell growth inhibition, %=- - - ×100

[3] = initial saline solution 0.005 mg/mL, final 40 nM in cultures, added day 1, three days of cultivation
[4] = initial saline solution 0.5 mg/mL, final 40 nM, day 1, three days
[5] = initial saline solution 1.0 mg/mL, final 40 nM, day 1, three days
[6] = initial saline solution 5.0 mg/mL, final 40 nM, day 1, three days

CC1=C(/C=C/C(C)=C/C=C/C(C)=C\C(=O)N[C@@H](CS(=O)(=O)O)C(=O)O)C(C)(C)CCC1 [Compound II, N-(13-cis-Retinoyl)-L-cysteic acid]
solubility in the commercially available Taxol® preparation [1]: excellent solubility
solubility in solvents ([1]; sodium salts): soluble only in mixtures containing water
inhibition at 0.04 µM ([2]; MDA-MB-231, compound alone 4 × 10^−8 mol/L (40 nM), added day 0, three days): 35.3%
inhibition at 0.04 µM ([2]; MDA-MB-231, dry substance, stock 1 mg/ml in saline, final 4 × 10^−8 mol/L, day 1, three days): 36.8%
inhibition at 1 µM ([2]; MDA-MB-231, dry substance, stock 1 mg/ml in saline, final 10^−6 mol/L, day 1, three days): 41.9%
inhibition at 0.1 µM ([2]; MDA-MB-231, dry substance, stock 1 mg/ml in saline, final 10^−7 mol/L, day 1, three days): 38.4%
inhibition at 0.01 µM ([2]; MDA-MB-231, dry substance, stock 1 mg/ml in saline, final 10^−8 mol/L, day 1, three days): 27.5%
inhibition at 0.001 µM ([2]; MDA-MB-231, dry substance, stock 1 mg/ml in saline, final 10^−9 mol/L, day 1, three days): 21.5%
inhibition at 0.0001 µM ([2]; MDA-MB-231, dry substance, stock 1 mg/ml in saline, final 10^−10 mol/L, day 1, three days): 17.8%
inhibition at 10 pM ([2]; MDA-MB-231, dry substance, stock 1 mg/ml in saline, final concentration 10^−11 mol/L, day 1, three days): 28.9%
inhibition at 0.04 µM ([2]; MDA-MB-231, sodium salt in saline, final 4 × 10^−8 mol/L, day 1, three days): 46.8%
inhibition at 1 µM ([2]; MDA-MB-231, sodium salt in saline, final 10^−6 mol/L (top of range 10^−11 M to 10^−6 M), day 1, three days): 51.6%
inhibition at 0.1 µM ([2]; MDA-MB-231, sodium salt in saline, final 10^−7 mol/L, day 1, three days): 46%
inhibition at 0.01 µM ([2]; MDA-MB-231, sodium salt in saline, final 10^−8 mol/L, day 1, three days): 46.5%
inhibition at 0.001 µM ([2]; MDA-MB-231, sodium salt in saline, final 10^−9 mol/L, day 1, three days): 41.2%
inhibition at 0.0001 µM ([2]; MDA-MB-231, sodium salt in saline, final 10^−10 mol/L, day 1, three days): 35.1%
inhibition at 10 pM ([2]; MDA-MB-231, sodium salt of the compound dissolved in saline (1 mg/ml), final concentration 10^−11 mol/L, day 1, three days): 27.9%
cell growth inhibition ([2]; compound alone 4 × 10^−8 mol/L (40 nM), added day 0, three days, 0.04 µM): ~40%
number of living cells ([2]; compound alone 4 × 10^−8 mol/L, added day 0, three days): 29.9 ± 2.38 × 10^3
Cell growth inhibition % Formulation ([2]; compound/paclitaxel formulations in saline): close to 75%
Cell growth inhibition % OF W/SAB ([2]; dried compound/paclitaxel mixed-micellar system (OF), freeze-dried as water solution, reconstituted with 0.05 M sodium acetate buffer): close to 71%
Cell growth inhibition % OF SAB/W ([2]; dried compound/paclitaxel mixed-micellar system (OF), freeze-dried in 0.05 M sodium acetate buffer, reconstituted with water): close to 72%
number of living cells ([2]; dry substance, stock 1 mg/ml in saline, final 4 × 10^−8 mol/L, day 1, three days): 32.6 ± 2.52 × 10^3
number of living cells ([2]; dry substance, stock 1 mg/ml in saline, final 10^−6 mol/L, day 1, three days): 30.0 ± 2.14 × 10^3
number of living cells ([2]; dry substance, stock 1 mg/ml in saline, final 10^−7 mol/L, day 1, three days): 31.8 ± 2.05 × 10^3
number of living cells ([2]; dry substance, stock 1 mg/ml in saline, final 10^−8 mol/L, day 1, three days): 37.4 ± 3.86 × 10^3
number of living cells ([2]; dry substance, stock 1 mg/ml in saline, final 10^−9 mol/L, day 1, three days): 40.5 ± 2.11 × 10^3
number of living cells ([2]; dry substance, stock 1 mg/ml in saline, final 10^−10 mol/L, day 1, three days): 42.4 ± 1.93 × 10^3
number of living cells ([2]; dry substance, stock 1 mg/ml in saline, final concentration 10^−11 mol/L, day 1, three days): 36.7 ± 3.65 × 10^3
cell growth inhibition [2, 3]: 32.6%
number of living cells [2, 3]: 34.8 ± 3.27 × 10^3
number of living cells ([2]; initial saline solution 0.05 mg/mL, final 40 nM, day 1, three days): 33.4 ± 2.91 × 10^3
cell growth inhibition [2, 4]: 35.9%
number of living cells [2, 4]: 33.1 ± 3.01 × 10^3
cell growth inhibition [2, 5]: 37.6%
number of living cells [2, 5]: 32.2 ± 2.14 × 10^3
cell growth inhibition [2, 6]: 29.3%
number of living cells [2, 6]: 36.5 ± 3.88 × 10^3
number of living cells ([2]; sodium salt in saline, final 4 × 10^−8 mol/L, day 1, three days): 31.2 ± 2.33 × 10^3
cell growth inhibition ([2]; sodium salt in saline, final 10^−6 mol/L (top of range 10^−11 M to 10^−6 M), day 1, three days): ~50%
number of living cells ([2]; sodium salt in saline, final 10^−6 mol/L, day 1, three days): 28.4 ± 1.02 × 10^3
number of living cells ([2]; sodium salt in saline, final 10^−7 mol/L, day 1, three days): 31.7 ± 1.54 × 10^3
number of living cells ([2]; sodium salt in saline, final 10^−8 mol/L, day 1, three days): 31.4 ± 1.62 × 10^3
number of living cells ([2]; sodium salt in saline, final 10^−9 mol/L, day 1, three days): 34.5 ± 1.94 × 10^3
number of living cells ([2]; sodium salt in saline, final 10^−10 mol/L, day 1, three days): 38.1 ± 1.18 × 10^3
number of living cells ([2]; sodium salt of the compound dissolved in saline (1 mg/ml), final concentration 10^−11 mol/L, day 1, three days): 42.3 ± 2.32 × 10^3
